# Test results from patent US12084708B1, “Acoustic wave resonator with active shunt capacitance cancellation and systems thereof” (National Technology & Engineering Solutions of Sandia, LLC, priority 2019, dated 2024).
# What was measured:
# E. coli MG1655 = assay: Dose response growth curve analysis (OD600), MG1655; type: cell-based
# Procedure: To perform an initial test of the sensors' ability to detect response of bacteria to antibiotics, common molecular cloning strains and one pseudo-wild-type strain of E. coli were selected. TOP10, DH5α, and MG1655 strains are sensitive to kanamycin, ampicillin, or chloramphenicol in the absence of a plasmid conferring resistance. Dose response growth curve analysis was performed to determine appropriate concentrations of antibiotic to use with each strain and plasmid combination.
# E. coli = conditions: final concentration 1M; positive control for cell death
# Procedure: For experiments in which bacteria were applied to the resonator devices, cultures were harvested at late log to early stationary phase. Cells were centrifuged at 5000× g for 5 minutes then resuspended in either fresh LB medium or phosphate-buffered saline. For antibiotic treatment, 200 µg/ml kanamycin was added to cells in the sensor devices.
structure (smiles),measurement,setting,value
CC1(C)S[C@@H]2[C@H](NC(=O)[C@H](N)c3ccccc3)C(=O)N2[C@H]1C(=O)O [ampicillin],concentration at which growth inhibition was observed,"E. coli MG1655; E. coli MG1655 cultures, varying doses, OD600, FIG. 16B",more than 1.56 μg/mL
NC[C@H]1O[C@H](O[C@H]2[C@H](O)[C@@H](O[C@H]3O[C@H](CO)[C@@H](O)[C@H](N)[C@H]3O)[C@H](N)C[C@@H]2N)[C@H](O)[C@@H](O)[C@@H]1O [kanamycin],minimum concentration that completely blocked growth,"E. coli MG1655; E. coli MG1655 without plasmid, full 24 hr culture time, OD600, FIG. 17",25 µg/mL
[Na+].[OH-] [sodium hydroxide],lysis of bacteria,E. coli,Complete lysis
